Test results published in PMC11625747, “The antipsychotic drug lurasidone inhibits coronaviruses by affecting multiple targets” (Frontiers in Cellular and Infection Microbiology, 2024).
Several values for one entry are separate records, joined by “and”; a condition that tells them apart may be missing. Identical values can stand only once. Like-named read-outs stand apart in the source and are kept apart here.

Tests used:
[1] = test system: lentiviral vector exposing the SARS-CoV-2 Spike protein, Wuhan isoform; assay type: cell-based; details: 5 µM, 4 h pre-incubation, HEK293-ACE2, Wuhan Spike
[2] = test system: lentiviral vector exposing the SARS-CoV-2 Spike protein, B.1.1.7 UK isoform; assay type: cell-based; details: 1 µM, 4 h pre-incubation, HEK293-ACE2, B.1.1.7 UK Spike
HCoV-OC43 [3] = test: HCoV-OC43 time-of-addition assay; assay type: cell-based; details: 50 µM; for antiviral activity, virus released in supernatant: MRC-5, MOI 0.1, 24 hours post-infection
HCoV-OC43 [4] = test: HCoV-OC43 antiviral focus reduction assay; assay type: cell-based
Procedure: The antiviral efficacy of lurasidone was determined by focus reduction assay, as described elsewhere ([Milani et al., 2021]). Briefly, MRC-5 sub-confluent cells in 96-well plates were infected with HCoV-OC43 at a multiplicity of infection (MOI) of 0.001 FFU/cell and concurrently treated with increasing concentrations of drug (100 to 0.12 µM). After incubation at 34°C for 16 hours, infected foci were visualized with an indirect immunocytochemistry procedure, using a primary antibody directed against the nucleoprotein of HCoV-OC43 (MAB9013, Merck KGaA, Darmstadt, Germany) or a primary antibody directed against the dsRNA (10010500, Nordic-MUbio, Susteren, Netherlands).
(§1) All data were analyzed with GraphPad Prism version 8.00 software. Results were expressed as mean values for three independent experiments performed in duplicate. […] Selectivity indexes were calculated as SI = CC50/EC50. The Student’s T-test was used to compare viral titers in virus inactivation assay. The viral titers of control and treated samples in time-of-addition assays were compared using a one-way analysis of variance (ANOVA) and a post-hoc Bonferroni test. Significance was set at p value <0.05 (*), <0.01 (**) and <0.001 (***).

HCoV-OC43 [5] = test: HCoV-OC43 entry assay; assay type: cell-based; details: 100-0.4 μM during virus entry, MRC-5, MOI 0.05
Procedure: The assay evaluates whether the drug inhibits the entry of virus into host cells. First, a fixed inoculum of HCoV-OC43 at MOI of 0.05 was allowed to attach to prechilled confluent cells, for 20 min at 4°C. Cells were then washed with cold medium three times to remove unbound virus, treated with serial dilutions of lurasidone (from 100 to 0.4 μM), and incubated for 1 h at 34°C to allow virus entry. After incubation, outer virions were removed with a 30 second treatment of citrate buffer (pH 3.0). Then, cells were washed with warm medium three times and treated as for the antiviral assay.

HCoV-OC43 [6] = test: HCoV-OC43 virus inactivation assay; assay type: cell-based; details: 50 µM with 10^5 FFU for 2 h at 34°C
SARS-CoV-2 [7] = test: SARS-CoV-2 virus inactivation (virucidal) assay; assay type: cell-based; details: 5 μM incubated with SARS-CoV-2 for 2 hours, Vero E6 plaque assay
[8] = test system: ACE2 levels in HEK293-ACE2 cells; test: Western blot analysis of ACE2 expression; assay type: cell-based, Human; details: 5 µM, 24 h, HEK293-ACE2 cell lysates
Procedure: HEK293-ACE2 cells were seeded (2.4 x 10^5 cells/well) on 12-well plates in complete DMEM medium with 10% FBS and incubated for 24 hours at 37°C in humidified 5% CO2. The medium was then replaced with a fresh one containing 5 µM lurasidone. Control cells were treated with an equivalent volume of vehicle only. After incubation for 3, 6, and 24 hours at 37°C in humidified 5% CO2 the medium was removed, the cells collected and lysed for 15 min at 4°C with 20 mM Tris-HCl, pH 7.5, containing 150 mM NaCl, 1 mM Na2EDTA, 1 mM EGTA, 1% NP-40, 1% sodium deoxycholate, 2.5 mM sodium pyrophosphate, 1 mM β-glycerophosphate, 1 mM Na3VO4 and 1 µg/ml leupeptin. Samples were centrifuged for 10 min at 16,100 x g and the protein content was quantified by using a BCA protein assay kit (Thermofisher, Rockford, USA). 10 µg of total proteins were loaded in each lane, immunoblotted using 10% bis-Tris gel (Invitrogen, Waltham, MA, USA), and transferred to a PVDF membrane (Millipore, Vimodrone, Milan, Italy). The membranes were incubated overnight at 4°C with an anti-ACE2 AC18Z mouse monoclonal antibody (1:200, Santa Cruz Biotechnology, Santa Cruz, CA, USA) or anti-β-actin mouse monoclonal antibody (1:5000, Sigma Aldrich). Peroxidase-conjugated anti-mouse IgG (1:5000, Sigma Aldrich) was used as the secondary antibody. Hybridization signals were detected with a ChemiDoc XRS Touch Imaging System (Bio-Rad).

[9] = Cell viability assay on MRC-5 cells; assay type: cell-based; details: human, same conditions as antiviral assay
Procedure: Pre-seeded MRC-5 cells were treated with the drug at concentrations ranging from 1000 to 12.3 μM or equal volumes of DMSO as control, under the same experimental conditions for the antiviral assays. After incubation, the CellTiter 96 Proliferation Assay Kit (Promega, Madison, WI, USA) was used to determine the effect of lurasidone on cell viability. The effect on cell viability was expressed as a percentage, by comparing absorbances of treated cells with those of cells incubated with DMSO-treated control wells.
as §1

3CL-Pro SARS-CoV-2 = biological target: T1, 3CL-Pro SARS-CoV-2 (Severe acute respiratory syndrome coronavirus 2, UniProt P0DTD1); test: biochemical
T1 construct: The SARS-CoV-2 nsp5 protease activity was measured in black 384 well plates

[10] = test system: lentiviral vector exposing the SARS-CoV-2 Spike protein, B.1.351 SA isoform; assay type: cell-based; details: 1 or 5 µM, 4 h pre-incubation, HEK293-ACE2, B.1.351 SA Spike
[11] = design: method as in Bawa and Scarff, 2015; details: patients, minimal changes in the metabolic profile; ref Bawa and Scarff, 2015; cited from earlier work
[12] = biological target: T2, recombinant human ACE2 (rhACE2) (Homo sapiens, UniProt Q9BYF1); test: Surface plasmon resonance direct binding assay; details: 10 µM injected on immobilized rhACE2
T2 construct: purchased Acrobiosystem
Procedure: Recombinant human ACE2-Fc tag (rhACE2) (Acrobiosystem) at 5 μg/mL in PBST was captured on a HC30M (Xantec) sensor chip after the immobilization of anti-Fc antibody (Biorad) at 25 μg/mL in acetate buffer pH 5.0 by classic amine coupling chemistry on a NHS/EDC activated surface, reaching a final immobilization level of ~ 1000 RU. Simultaneously, a mix of IgG antibodies at 25 μg/mL in acetate buffer pH 5.0 was immobilized on a parallel surface and used as reference.
To test the direct binding of rhACE2 and lurasidone, the drug was injected at 10 µM in PBST 0.1% DMSO for 200 seconds at 30 μl/min on both surfaces. In a different channel, we also flowed SARS-CoV-2 Spike protein RBD (Wuhan isotype) at 10 nM in PBST as a positive control.

RdRp SARS-CoV-2 = biological target: T3, RdRp SARS-CoV-2 (Severe acute respiratory syndrome coronavirus 2, UniProt P0DTD1); test: biochemical
T3 construct: SARS-CoV-2 RdRp was expressed and purified as described; made in house

[13] = Cell viability, MTT assay; assay type: cell-based, Human; details: human, HEK293-ACE2 cells, 10 µM, 24 hours administration
Procedure: (§2) HEK293-ACE2 cells were seeded (2 x 10^4 cells/well) on 96-well plates in a complete DMEM medium with 10% FBS. After incubation for 24 hours at 37°C in humidified 5% CO2, the medium was replaced with a fresh one containing lurasidone previously dissolved in Milli-Q water at 0.1 – 100 µM. Control cells were treated with an equivalent volume of vehicle only. Cells were incubated for 24 hours at 37°C in humidified 5% CO2, then the medium was replaced with a fresh one without lurasidone. After an additional incubation of 24 hours at 37°C in humidified 5% CO2, HEK293-ACE2 cells were treated with 5 mg/ml 3-(4,5-dimethylthiazol-2-yl)-2,5 diphenyltetrazolium bromide (MTT) (Sigma Aldrich, St. Louis, MO, USA, #M5655-1G) in 5 mM Phosphate Buffered Saline (PBS), pH 7.4. After incubation for 4 hours at 37°C, MTT was removed, and the cells resuspended in isopropanol containing 0.04 M HCl. The absorbance of the samples was determined at 560 nm using a spectrophotometer (Infinite M200, Tecan, Männedorf, Switzerland), and the cell viability was expressed as a percentage of Vehicle-treated cells.

HEK293-ACE2 cells = test: Cell viability, MTT assay; assay type: cell-based, Human; details: 100 µM (maximum tested dose), 24 hours administration
Procedure: as §2

SARS-CoV-2 [14] = test: microbe, parasite or virus in culture; assay type: cell-based
PL-Pro SARS-CoV-2 = biological target: T4, PL-Pro SARS-CoV-2 (Severe acute respiratory syndrome coronavirus 2, UniProt P0DTD1); test: Biochemical assay for SARS-CoV-2 PL-Pro
T4 construct: purified recombinant SARS-CoV-2 RdRp, 3CL-Pro and PL-Pro proteins

T2 sequence (Q9BYF1 18-805): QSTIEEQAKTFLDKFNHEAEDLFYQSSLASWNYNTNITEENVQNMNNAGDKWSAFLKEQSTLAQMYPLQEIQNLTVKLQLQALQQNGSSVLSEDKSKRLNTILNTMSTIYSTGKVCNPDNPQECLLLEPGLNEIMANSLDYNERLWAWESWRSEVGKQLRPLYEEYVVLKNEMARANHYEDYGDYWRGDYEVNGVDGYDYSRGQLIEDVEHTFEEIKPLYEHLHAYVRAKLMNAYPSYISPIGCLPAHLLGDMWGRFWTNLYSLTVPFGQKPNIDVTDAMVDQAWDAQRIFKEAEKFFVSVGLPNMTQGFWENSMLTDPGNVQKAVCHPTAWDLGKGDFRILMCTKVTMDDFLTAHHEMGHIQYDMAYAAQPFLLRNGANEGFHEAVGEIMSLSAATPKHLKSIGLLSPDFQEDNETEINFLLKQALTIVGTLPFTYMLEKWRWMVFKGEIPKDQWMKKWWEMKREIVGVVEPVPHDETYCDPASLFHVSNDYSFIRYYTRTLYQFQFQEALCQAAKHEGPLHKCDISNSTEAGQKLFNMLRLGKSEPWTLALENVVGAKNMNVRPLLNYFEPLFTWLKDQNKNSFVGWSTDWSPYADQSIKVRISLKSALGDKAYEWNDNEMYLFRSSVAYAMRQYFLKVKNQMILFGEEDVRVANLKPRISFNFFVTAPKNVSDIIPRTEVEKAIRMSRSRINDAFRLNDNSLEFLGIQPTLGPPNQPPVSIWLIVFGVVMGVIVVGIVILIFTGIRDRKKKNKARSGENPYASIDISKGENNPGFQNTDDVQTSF

## O=C1[C@@H]2[C@H]3CC[C@H](C3)[C@@H]2C(=O)N1C[C@@H]1CCCC[C@H]1CN1CCN(c2nsc3ccccc23)CC1 [Lurasidone, lurasidone]
[1]
  inhibition of transduction (GFP-positive cells): active
[2]
  inhibition of transduction (GFP-positive cells): able to inhibit
HCoV-OC43 [3]; 18 hours post-infection treatment, p < 0.001
  reduction of virus titer: significant reduction
HCoV-OC43 [3]; co-treatment 1 hour during virus inoculum
  antiviral activity, virus released in supernatant: not active
HCoV-OC43 [3]; post-treatment 1, 4, 18 hours after infection, MRC-5, MOI 0.1
  inhibition of virus production: significantly inhibited virus production
HCoV-OC43 [3]; pre-treatment 1 hour before infection
  antiviral activity, virus released in supernatant: not active
HCoV-OC43 [4]; Betacoronavirus 1, OC43, MRC5, 16 h, read-out: EC50 (mean ± SD), viral marker NP (nucleoprotein), MRC-5 cells, MOI 0.001, 16 hours
  EC50: 8.3 µM
HCoV-OC43 [4]; Betacoronavirus 1, OC43, MRC5, 16 h, read-out: EC50 (mean ± SD), viral marker dsRNA, MRC-5 cells, MOI 0.001, 16 hours
  EC50: 8.5 µM
HCoV-OC43 [4]; Betacoronavirus 1, OC43, MRC5, read-out: EC90 (mean ± SD), viral marker NP (nucleoprotein), MRC-5 cells
  EC90: 23.5 µM
HCoV-OC43 [4]; Betacoronavirus 1, OC43, MRC5, read-out: EC90 (mean ± SD), viral marker dsRNA, MRC-5 cells
  EC90: 11.9 µM
HCoV-OC43 [4]; Betacoronavirus 1, OC43, both markers (NP and dsRNA)
  EC50: ~8 µM
HCoV-OC43 [4]; MRC-5 cells, HCoV-OC43
  EC99 dose: 50 µM
HCoV-OC43 [4]; viral marker NP
  SI (CC50/EC50): >120.5
HCoV-OC43 [4]; viral marker dsRNA
  SI (CC50/EC50): >117.6
HCoV-OC43 [5]
  inhibition of virus entry into the host cell: does not act during the early steps of virus infection
HCoV-OC43 [6]
  intrinsic virucidal activity: not endowed with intrinsic virucidal activity
SARS-CoV-2 [7]
  virucidal activity: did not show any significant virucidal activity
[8]
  modification in the ACE2 levels: no significant modification
[9]
  CC50: > 1000 µM
3CL-Pro SARS-CoV-2
  IC50: > 100 µM
3CL-Pro SARS-CoV-2; in the presence of 100 µM, read-out: Percentage of control activity, 3CL-Pro
  remaining activity at 100 µM: 87%
[10]
  inhibition of transduction (GFP-positive cells): not effective
[11]
  tolerability in clinical trials: good tolerability
[12]
  direct binding to rhACE2 (SPR): not able to bind
RdRp SARS-CoV-2; 50 nM enzyme
  IC50: > 100 µM
RdRp SARS-CoV-2; in the presence of 100 µM, read-out: Percentage of control activity, RdRp
  remaining activity at 100 µM: 100%
[13]
  viability at 24 h, 10 µM: ~80%
HEK293-ACE2 cells
  toxicity: ~ 40%
SARS-CoV-2 [14]
  effect on viral replication: did not affect viral replication
  inhibition of viral replication: 78% and 79% and 40%
SARS-CoV-2 [14]; Severe acute respiratory syndrome coronavirus 2, 24 h, read-out: inhibition of viral replication
  inhibition at 5 µM: 76%
PL-Pro SARS-CoV-2
  IC50: 0.12 ± 0.03 µM
